Where two headings read alike, the source gives them in different places.
Legend:
[1] = system: isolated rat atrium; test: antiarrhythmic effect, isolated rat atrium method of M. Libonati and G. Segre; conditions: Rattus norvegicus
[2] = in vivo; conditions: mouse, in vivo, iv
Description: The tolerance of acetyl-d,l-carnitine and of the other aforementioned acyl derivatives of the formula (I), as well as their salts were investigated by comparing the LD50 obtained by administering the compounds intravenously in mice with the LD50 obtained under the same experimental conditions by intravenous injection of d,l-carnitine.

[3] = system: isolated rabbit hearts; test: cardiokinetic effect on isolated heart (Langendorff): contractile force after anoxia, positive inotropic effect; conditions: 10 minutes from interruption of anoxic period
Procedure, shortened: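 Rabbit hearts were perfused Langendorff-style with oxygenated Ringer at 38.2 °C. Anoxia was applied until contractile force dropped by 80%, then the hearts were reoxygenated with or without compound. Contractile force was expressed as a percentage 10 min after the anoxic period ended.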

[4] = system: female rats; test: antifatigue effect: rota-rod; assay type: in vivo, rat; conditions: Rattus norvegicus, ip, 0.25 h; for responders at 100 mg/kg: read-out: percentage of animals staying on the rota-rod more than 180 seconds, 100 mg/kg i.p.; for responders at 200 mg/kg: read-out: percentage of animals staying on the rota-rod more than 180 seconds, 200 mg/kg i.p.; for responders at 400 mg/kg: read-out: percentage of animals staying on the rota-rod more than 180 seconds, 400 mg/kg i.p.; for responders at 600 mg/kg: read-out: percentage of animals staying on the rota-rod more than 180 seconds, 600 mg/kg i.p.
Procedure, shortened: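 Female rats dosed intraperitoneally in saline, with controls given saline alone. Every 15 min after treatment animals were placed on a 6 cm rod rotating at 16 r.p.m. Value is the percentage of animals staying on the rod for more than 180 s, per session.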

[5] = system: isolated rabbit hearts; test: coronary vasodilator effect: coronary flow, isolated heart (Langendorff)
Procedure, shortened: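 Langendorff-perfused isolated rabbit hearts in oxygenated Ringer at 38.2° C; anoxia imposed until contractile force fell by 80%, then reoxygenated with or without test compound. Coronary flow, isometric contraction and ECG recorded by polygraph.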

[6] = read-out: Mean percent variation versus controls: excitability (-%)
[7] = read-out: Mean percent variation versus controls: frequency max (-%)
[8] = read-out: Mean percent variation versus controls: refractory period (+%)
[9] = read-out: Mean percent variation versus controls: rheobase (+%)
[10] = session 6 (every 15 minutes), * p < 0.05

## CC(=O)OC(CC(=O)[O-])C[N+](C)(C)C (racemic) [acetyl-d,l-carnitine]
[1]; [6]
  inhibition at 0.001 µg/mL: 7.18%
  inhibition at 0.01 µg/mL: 18.6%
  inhibition at 0.1 µg/mL: 71%
[1]; [7]
  inhibition at 0.001 µg/mL: 6.08%
  inhibition at 0.01 µg/mL: 15%
  inhibition at 0.1 µg/mL: 23.6%
[1]; [8]
  activation at 0.001 µg/mL: 14.5%
  activation at 0.01 µg/mL: 16.8%
  activation at 0.1 µg/mL: 27.4%
[1]; [9]
  activation at 0.001 µg/mL: 3.32%
  activation at 0.01 µg/mL: 15.3%
  activation at 0.1 µg/mL: 21.7%
[2]
  LD50: ~770 mg/kg
[3]; 1·10^-5 g/lt
  Contractile force, Mean ± S.E.: 77.5 ± 3.29%
[3]; 1·10^-6 g/lt
  Contractile force, Mean ± S.E.: 32.5 ± 4.38%
[3]; 5·10^-6 g/lt
  Contractile force, Mean ± S.E.: 42.9 ± 6.22%
[4]; session 1 (every 15 minutes)
  responders at 100 mg/kg: 0%
  responders at 200 mg/kg: 0%
  responders at 400 mg/kg: 0%
  responders at 600 mg/kg: 0%
[4]; session 2 (every 15 minutes)
  responders at 100 mg/kg: 0%
  responders at 200 mg/kg: 0%
  responders at 400 mg/kg: 10%
  responders at 600 mg/kg: 0%
[4]; session 3 (every 15 minutes)
  responders at 100 mg/kg: 0%
  responders at 200 mg/kg: 0%
  responders at 400 mg/kg: 10%
  responders at 600 mg/kg: 10%
[4]; session 4 (every 15 minutes)
  responders at 100 mg/kg: 0%
  responders at 200 mg/kg: 30%
  responders at 400 mg/kg: 10%
  responders at 600 mg/kg: 20%
[4]; session 5 (every 15 minutes)
  responders at 100 mg/kg: 0%
  responders at 400 mg/kg: 40%
  responders at 600 mg/kg: 40%
[4]; session 6 (every 15 minutes)
  responders at 100 mg/kg: 10%
[4]; session 5 (every 15 minutes), * p < 0.05
  responders at 200 mg/kg: 50%
[4]; [10]
  responders at 200 mg/kg: 50%
  responders at 400 mg/kg: 50%
  responders at 600 mg/kg: 50%
[5]; 1·10^-5 g/lt
  Coronary flow, Mean ± S.E.: 90.05 ± 7.10%
[5]; 1·10^-6 g/lt
  Coronary flow, Mean ± S.E.: 75.80 ± 5.92%
[5]; 5·10^-6 g/lt
  Coronary flow, Mean ± S.E.: 76.30 ± 11.9%
